Calls of active or inactive are those of the source. No cut-off for these calls is given here.
Assays:
PC-12 [1] = test: Induction of neurite outgrowth in rat PC12 cells assessed as increase in neurite length at 1 uM incubated for 48 hrs by phase contrast microscopy; format: functional, cell-based
PC-12 [2] = test: Cytotoxicity against rat PC12 cells assessed as reduction in cell viability at 10 uM incubated for 48 hrs; format: cell-based; conditions: pc-12, 48 h
PC-12 [3] = test: Induction of neurite outgrowth in rat PC12 cells assessed as increase in neurite length incubated for 48 hrs by phase contrast microscopy; format: functional, cell-based
PC-12 [4] = test: Cytotoxicity against rat PC12 cells assessed as reduction in cell viability at >5 uM incubated for 48 hrs; format: cell-based; conditions: pc-12, 48 h
PC-12 [5] = test: Induction of neurite outgrowth in rat PC12 cells assessed as increase in neurite length at 30 uM incubated for 48 hrs by phase contrast microscopy; format: functional, cell-based
PC-12 [6] = test: Induction of neurite outgrowth in rat PC12 cells assessed as increase in neurite length at 10 uM incubated for 48 hrs by phase contrast microscopy; format: functional, cell-based

| Structure (SMILES) | Activity (PC-12 [1]) | Activity (PC-12 [5]) | also measured |
| --- | --- | --- | --- |
| CCCCCCC/C=C/c1ccc(COC(=O)c2cccc(O)c2O)cc1 | Active | – | – |
| CCCCCCCC/C=C/c1ccc(COC(=O)c2cccc(O)c2O)cc1 | Active | – | – |
| CCCCCCCCCc1ccc(COC(=O)c2cccc(O)c2O)cc1 | Active | – | Activity (PC-12 [2]): Toxic; Activity (PC-12 [3]): Dose-dependent effect; Activity (PC-12 [4]): Toxic |
| O=C(OCc1ccccc1)c1cccc(O)c1O | – | Active | – |
| O=C(OCCc1ccccc1)c1cccc(O)c1O | – | inactive | – |
| CCCCCCCCCCCCCCOC(=O)c1c(O)c(=O)[nH]c2ccccc12 | Active | – | Activity (PC-12 [2]): Toxic; Activity (PC-12 [3]): Dose-dependent effect; Activity (PC-12 [4]): Toxic |
| CCCCCCCCCCCCCCOC(=O)c1ccn[nH]1 | inactive | – | – |
| CCCCCCCCCCCCCCOC(=O)c1cccc2nc[nH]c12 | inactive | – | – |
| O=C(OCCCc1ccccc1)c1cccc(O)c1O | – | inactive | – |
| CCCCCCc1ccc(-c2ccc(OC(=O)c3cccc(O)c3O)cc2)cc1 | – | – | Activity (PC-12 [6]): inactive |
| O=C(OCCCCCCCCCCc1ccccc1)c1cccc(O)c1O | – | inactive | – |
| O=C(Oc1ccc(-c2ccccc2)cc1)c1cccc(O)c1O | – | – | Activity (PC-12 [6]): inactive |
| CCCCCCCCCCCCCCOC(=O)c1csc(N)n1 | inactive | – | – |
| CCCCCc1ccc(-c2ccc(COC(=O)c3cccc(O)c3O)cc2)cc1 | – | – | Activity (PC-12 [6]): inactive |
| CCCCCCCCCCc1ccc(OC(=O)c2cccc(O)c2O)cc1 | Active | – | Activity (PC-12 [2]): Toxic; Activity (PC-12 [3]): Dose-dependent effect; Activity (PC-12 [4]): Toxic |
| O=C(OCc1ccc(-c2ccccc2)cc1)c1cccc(O)c1O | – | – | Activity (PC-12 [6]): inactive |
| CCCCCCCCCCc1ccc(COC(=O)c2cccc(O)c2O)cc1 | Active | – | – |
| O=C(OCCCCc1ccccc1)c1cccc(O)c1O | – | inactive | – |
| O=C(Oc1ccccc1)c1cccc(O)c1O | – | Active | – |
| CCCCCCCCCCCCCCOC(=O)c1cccc(O)c1O | Active | – | Activity (PC-12 [2]): Toxic; Activity (PC-12 [4]): Toxic |

Source: ChEMBL document CHEMBL4359927, “Structural optimization and neurotrophic activity evaluation of neurotrophic gentiside derivatives” (Bioorg Med Chem Lett, 2019)
